Source: US20130123253A1, “MODULATORS OF CENTRAL NERVOUS SYSTEM NEUROTRANSMITTERS” (HUMAN BIOMOLECULAR RESEARCH INSTITUTE, priority 2004, published 2013)
Read-outs that look alike come from different tables or passages of the source.

Key:
DAT, SERT or NET = assay: Binding and reuptake inhibition in HEK cells containing DAT, SERT or NET (overall statement); assay type: cell-based, human; conditions: for transporter inhibition potency: DAT, SERT, NET binding and reuptake
Method: The data cannot be directly compared with Table 1 because the compounds of Table 3 were mixtures of diastereomers and isomers at all centers of chirality.
Transporter Binding Assays. […] Cells were scraped from plates and centrifuged for […] at 30,000×g and the pellet was re-suspended in 0.32 M sucrose with a Polytron at a setting of 1 for 5 sec. […] Membranes were pre-incubated with test compounds for […] before addition of [^125I]RTI-55. […] The incubations were done in the dark and terminated by filtration onto a Whatman GF/C filters using a 96-well Tomtech cell harvester (Tomtech, Orange, Conn.). Scintillation fluid was added to each filter spot and radioactivity remaining on the filter was determined using a Wallace β-plate reader (Wallace Labs, Cranbury, N.J.).

rodent PDE4 = assay: Inhibition of rodent PDE4 (rolipram binding sites); conditions: Table 4
Method: IC50 values for inhibitor interaction with this site were calculated by nonlinear regression analysis of competition curves for unlabeled PDE4 inhibitors; Ki values were determined according to the method of Cheng and Prusoff (1973). […] Competition curves for the PDE4 inhibitors were subjected to nonlinear regression analysis and IC50 values with which the inhibitors bind to each of the binding sites was determined; K1 values were determined according to the method of Cheng and Prusoff (1973).

human PDE4D3 = target: T1, human PDE4D3 (Homo sapiens, UniProt Q08499); assay: Inhibition of cAMP hydrolysis by recombinant human PDE4D3; assay type: biochemical
T1 construct: made in house; host or cells: Cos 7 cells (construct and cells a gift from Dr. Conti, Stanford)
Method: The PDE construct was transfected into Cos 7 cells in round culture dish (100×20 mm). The cells were then harvested and homogenized with lysis buffer. The crude homogenate was spun at maximum speed in a microfuge. The supernatant fluid was saved as an extract. […] The PDE construct and Cos 7 cells were a kind gift from Dr. Conti at the Stanford University School of Medicine.
(§1) PDE4 enzyme assays were carried out as described previously. Studies with recombinant PDE4 enzymes were carried out in the laboratory of Professor Marco Conti (Stanford University, Palo Alto, Calif.).

mice = assay: Morris water maze test; assay type: in vivo, mouse; conditions: 3 mg/kg, compared to control mice
Method: Compounds 19 and 115 were tested in a Morris water maze test. The escape latency (time to climb onto a hidden platform) for each mouse was recorded as a memory test. […] Compared to a group of control mice, compound 19 and 115 caused a 30% improvement in memory at 3 mg/kg. […] This is not completely unexpected as SSRIs often require repeated dosing to see a large and significant effect. […] Multiple dosing likely will increase the efficacy of the compounds tested.

human PDE4B3 = target: T2, human PDE4B3 (Homo sapiens, UniProt Q07343); assay: Inhibition of cAMP hydrolysis by recombinant human PDE4B3; assay type: biochemical; conditions: Example 29
T2 construct: made in house
Method: as §1

human PDE4A1 = target: T3, human PDE4A1 (Homo sapiens, UniProt P27815); assay: Inhibition of cAMP hydrolysis by recombinant human PDE4A1; assay type: biochemical
T3 construct: made in house
Method: as §1

[1] = Human liver microsome stability assay; assay type: in vitro ADME; conditions: for half-life at 40 μM: human, liver microsomes, pH 7.4, Table 16, read-out: HLM t1/2
Method: (§2) Microsomal incubations (final volume 0.25 mL) with the SSRIs, dual PDE4 inhibitor/SSRIs or PDE4 inhibitor was done with an HPLC assay as described above. Diluted stocks of either mouse, human or rat liver microsomes (0.5 mg of protein), […] potassium phosphate buffer (pH 7.4), 0.5 mM NADI)^+, 0.5 mM glucose-6-phosphate, 5 IU/mL glucose-6-phosphate dehydrogenase, 0.6 mM DETAPAC, and 3 mM MgC12 were combined and placed on ice. For a metabolic stability assay, either vehicle or 40 μM test compound was added and the incubation was initiated at 37° C. with constant shaking. After 0, 10, 25, 40 and 60 min, the incubations were stopped by the addition of 1 mL CH2Cl2/2-propanol (3:1, v:v). After thorough mixing, the organic layer was separated from the aqueous portion by centrifugation at 12,000×g. The organic material was evaporated with a stream of argon. The residue was dissolved in methanol (200 μL) and the sample was analyzed by HPLC.

ICR mice = assay: Forced-swim test in ICR mice; assay type: in vivo, mouse
Method: Forty male ICR mice, weighed 26.2±0.3 g, were housed in a temperature-controlled room (22-23° C.) and maintained on a 12-hour on 12-hour off light cycle (lights on at 6:00 AM). Water and food were freely available in the home cages. […] Saline containing the same percentage of DMSO was used as vehicle. The lower doses were tested followed by the larger doses 1 week later, when the mice were again randomly divided into four groups as described above. The forced-swim test (FST) was carried out as described previously. Mice were given a swimming pretest session, once a day for two successive days. Twenty-four hours after the last session, mice were injected vehicle or the lower dose of each test compound by the i.p. route 30 min prior to the FST. One week later, administration of the larger dose of each of the test compounds was repeated. During the pretest and test sessions, each mouse was placed for 6 min in a plastic cylinder (45 cm high×20 cm diameter), which was filled to a depth of 28 cm with water (23±1° C.). The duration of immobility, which was defined as floating in an upright position without additional activity other than that necessary for the animal to keep its head above water, was recorded.

[2] = Mouse liver microsome stability assay; assay type: in vitro ADME
Method: A typical assay mixture contained either mouse or rat liver microsomes (0.5 mg of protein), […] potassium phosphate buffer (pH 7.4), 40 μM test compounds, 0.5 mM NADP+, 0.5 mM glucose-6-phosphate, 5 IU/mL glucose-6-phosphate dehydrogenase, 1 mg/mL diethylenetriaminepentaacetic acid (DETAPAC) and 5 mM MgCl2 in a final incubation volume of 0.1 mL. After 0, 10, 25, 40 and […], the incubations were stopped by the addition of 1 ml CH2Cl2/2-propanol (3:1 v:v). The mixture was centrifuged at 12,000×g for 1 min, and the organic layer was separated from the aqueous fraction. The organic fraction was evaporated with a stream of argon and the residue was taken up in methanol (200 μL) and injected into the HPLC system described above.
as §2

Swiss-Webster mice = assay: animal or person; assay type: in vivo, mouse
Method: A time course/dose response study of cocaine-induced locomotor stimulation was conducted beginning Feb. 21, 2000, according to a locomotor activity studies time course protocol. […]. A panel of infrared beams (16 beams) and corresponding photodetectors were located in the horizontal direction along the sides of each activity chamber. A 7.5-W incandescent light above each chamber provided dim illumination. Fans provided an 80-dB ambient noise level within the chamber. […]. In all studies, horizontal activity (interruption of photocell beams) was measured for 8 hours within 10-min periods, beginning at 0800 hrs (2 hours after lights on). Testing was conducted with one mouse per activity chamber.
. Behavioral observations were recorded on each mouse at 30, 120 and 480 minutes following 100 mg/kg compound 31,646.

Balb/c mice = assay: Forced-swim test in Balb/c mice; assay type: in vivo, mouse; conditions: for duration of immobility, forced-swim test, acute: i.p. 30 min prior, fluoxetine 20 mg/kg, test compounds 10 mg/kg
Method: The study was conducted according to a standard operation procedure and in accordance with all Federal regulations. Water and food were freely available in the home cages. […] Mice were given a swimming pretest session, once a day for two successive days. […] During the pretest and test sessions, each mouse was placed for […] in a plastic cylinder (45 cm high×20 cm diameter), which was filled to a depth of 28 cm with water (23±1° C.). The duration of immobility, which was defined as floating in an upright position without additional activity other than that necessary for the animal to keep its head above water, was recorded. For the subchronic administration tests, the animals were separated as above and vehicle or chemicals were given by i.p. administration 23, 5 and 1 hr before the FST. The subchronic experiments were done similar to the study described above except for the pretest training that was not carried out.
Mice in the first session were treated with vehicle or the drugs acutely, whereas mice in the second sessions were treated subchronically, i.e., vehicle or drugs were given i.p. 23, 5, and 1 hr before the FST. The experiment was performed similar to Experiment 1 except for the pretest training, which was not carried out in the second session.

[3] = Example 29, read-out: Ki, human PDE4A1
[4] = Table 14, read-out: Human PDE4A1 Ki
[5] = Example 29, read-out: Ki, human PDE4D3

T1 sequence (Q08499 1-673 isoform Q08499-2): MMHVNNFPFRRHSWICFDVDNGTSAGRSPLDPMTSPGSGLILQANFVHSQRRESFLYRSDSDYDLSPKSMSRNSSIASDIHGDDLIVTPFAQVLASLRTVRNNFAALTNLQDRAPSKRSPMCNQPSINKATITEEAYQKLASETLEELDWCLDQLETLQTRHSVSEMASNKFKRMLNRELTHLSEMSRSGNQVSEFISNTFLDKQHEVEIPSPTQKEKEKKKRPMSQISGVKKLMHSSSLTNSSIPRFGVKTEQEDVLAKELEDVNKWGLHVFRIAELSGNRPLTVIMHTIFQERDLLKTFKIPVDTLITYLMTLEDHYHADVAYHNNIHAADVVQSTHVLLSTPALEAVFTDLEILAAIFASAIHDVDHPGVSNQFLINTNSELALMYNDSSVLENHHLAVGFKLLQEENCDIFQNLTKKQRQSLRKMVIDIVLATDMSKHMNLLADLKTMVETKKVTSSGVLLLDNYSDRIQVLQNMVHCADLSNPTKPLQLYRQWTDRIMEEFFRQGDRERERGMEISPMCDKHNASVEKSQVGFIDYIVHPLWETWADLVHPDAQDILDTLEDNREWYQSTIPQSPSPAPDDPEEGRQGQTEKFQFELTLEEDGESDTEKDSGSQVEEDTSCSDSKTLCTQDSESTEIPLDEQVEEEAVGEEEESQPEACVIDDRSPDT
T3 sequence (P27815 1-647 isoform P27815-4): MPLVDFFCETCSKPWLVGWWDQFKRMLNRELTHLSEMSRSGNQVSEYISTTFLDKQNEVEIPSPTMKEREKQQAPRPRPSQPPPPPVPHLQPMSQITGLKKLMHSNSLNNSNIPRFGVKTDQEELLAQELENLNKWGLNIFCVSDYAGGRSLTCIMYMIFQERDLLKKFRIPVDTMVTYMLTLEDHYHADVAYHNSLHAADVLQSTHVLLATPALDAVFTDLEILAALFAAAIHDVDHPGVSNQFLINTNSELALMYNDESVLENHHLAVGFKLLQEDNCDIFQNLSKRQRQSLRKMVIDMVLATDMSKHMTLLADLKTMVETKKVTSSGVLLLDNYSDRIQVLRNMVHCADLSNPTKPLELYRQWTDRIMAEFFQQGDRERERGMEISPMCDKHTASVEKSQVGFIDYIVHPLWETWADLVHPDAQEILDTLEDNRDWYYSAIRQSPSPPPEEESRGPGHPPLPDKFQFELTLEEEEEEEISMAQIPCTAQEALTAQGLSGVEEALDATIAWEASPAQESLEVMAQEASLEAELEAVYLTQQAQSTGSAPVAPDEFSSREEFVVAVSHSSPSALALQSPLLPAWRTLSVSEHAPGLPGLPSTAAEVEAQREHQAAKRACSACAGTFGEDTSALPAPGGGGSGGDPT
T2 sequence (Q07343 1-721 isoform Q07343-3): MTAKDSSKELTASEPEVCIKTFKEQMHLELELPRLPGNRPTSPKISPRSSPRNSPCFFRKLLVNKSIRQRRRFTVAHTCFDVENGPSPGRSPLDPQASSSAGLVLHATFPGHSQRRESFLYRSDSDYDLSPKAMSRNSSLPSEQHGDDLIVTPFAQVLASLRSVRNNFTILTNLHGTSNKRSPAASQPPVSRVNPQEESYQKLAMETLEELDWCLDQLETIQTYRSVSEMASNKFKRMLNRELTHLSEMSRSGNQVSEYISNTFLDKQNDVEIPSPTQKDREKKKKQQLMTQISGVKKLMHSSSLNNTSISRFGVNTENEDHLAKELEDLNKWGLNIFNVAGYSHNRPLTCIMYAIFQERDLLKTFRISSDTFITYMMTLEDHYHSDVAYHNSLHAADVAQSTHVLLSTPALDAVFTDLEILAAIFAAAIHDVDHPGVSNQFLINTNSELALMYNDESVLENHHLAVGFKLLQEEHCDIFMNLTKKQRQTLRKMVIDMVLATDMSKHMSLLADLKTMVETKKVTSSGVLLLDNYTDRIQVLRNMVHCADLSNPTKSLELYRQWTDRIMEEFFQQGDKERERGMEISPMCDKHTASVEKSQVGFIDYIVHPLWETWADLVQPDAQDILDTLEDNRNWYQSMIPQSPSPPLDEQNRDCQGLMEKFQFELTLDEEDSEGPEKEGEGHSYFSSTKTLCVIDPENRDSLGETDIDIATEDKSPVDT

2-(5-Bromo-pentyl)-4-(3,4-dimethoxy-phenyl-4a,5,8,8a-tetrahydro-2H-phthalazin-1-one [Compound 20]
transporter inhibition potency (DAT, SERT or NET): no transporter inhibition potency

COc1ccc(C2=NNC(=O)C3CC=CCC23)cc1OC (racemic) [Compound 19, 4-(3,4-Dimethoxy-phenyl)-4a,5,8,8a-tetrahydro-2H-phthalazin-1-one, reference compound]
transporter inhibition potency (DAT, SERT or NET): no transporter inhibition potency
pIC50 (rodent PDE4): 6.7
Ki (human PDE4D3; Table 5, recombinant human PDE 4D3, read-out: Ki): 6.3 nM

COc1ccc(C2=NNC(=O)[C@@H]3CC=CC[C@H]23)cc1OC (racemic) [Compound 19, 4-(3,4-Dimethoxy-phenyl)-4a,5,8,8a-tetrahydro-2H-phthalazin-1-one, reference compound]
improvement in memory (escape latency) (mice): 30%
effect on RTI-55 binding or reuptake at any transporter (DAT, SERT or NET; hDAT, hSERT, hNET): essentially no measurable effect
Ki (human PDE4B3): 250 nM
Ki (human PDE4A1; [3]): > 1000 nM
Ki (human PDE4A1; [4]): < 1000 nM
half-life at 40 μM [1]: > 1 h
immobility, forced-swim test, acute, higher dose (ICR mice; 3 mg/kg i.p., vs vehicle, P<0.05): significantly reduced immobility
duration of immobility, forced-swim test, acute (ICR mice; 0.3 and 3 mg/kg i.p.): decreased duration of immobility in a dose-dependent manner
half life, mouse liver microsomes ([2]; NADPH): 3.52 h
MLM t1/2 ([2]; Table 16): 3.522 h
PDE4A1/PDE4D3 inhibitory selectivity ratio (human PDE4D3): < 159 fold
PDE4B3/PDE4D3 inhibitory selectivity ratio (human PDE4D3): 40 fold
Ki (human PDE4D3; [5]): 6.3 nM

COC(=O)[C@H]1[C@@H](OC(=O)c2ccccc2)C[C@@H]2CC[C@H]1N2C [Cocaine, reference compound]
onset of stimulant effects after injection (Swiss-Webster mice; 10 and 20 mg/kg): ≤ 10 min
ED50 (Swiss-Webster mice; Mus musculus, IP, 0-30 min, read-out: ED50 (dose producing 1/2 maximal stimulant activity)): 5.8 mg/kg
dose at maximum horizontal activity (Swiss-Webster mice; estimated from fitted curve): 23.4 mg/kg
maximum horizontal activity (Swiss-Webster mice; estimated from fitted curve, 0-30 min): 5520 counts/10 min

COc1ccc(F)cc1CCC1CCC(CCN)O1 (stereo not drawn) [Compound 14, 2-Aminoethyl-5-(2′-methoxy-5′-fluorophenethyl)tetrahydrofuran]
immobility, forced-swim test, subchronic (Balb/c mice; i.p. 23, 5 and 1 hr prior, fluoxetine 10 mg/kg, 18k/l or 14 10 mg/kg, 21 1 mg/kg): did not change immobility
duration of immobility, forced-swim test, acute (Balb/c mice): did not markedly alter the duration of immobility
immobility, forced-swim test, acute (ICR mice; 10 and 30 mg/kg i.p.): tended to decrease immobility, but it was not statistically significant
half life, mouse liver microsomes ([2]; NADPH): 0.933 h
MLM t1/2 ([2]; Table 16): 0.933 h

COc1ccc(F)cc1CCCC1CCC(CCN)O1 (stereo not drawn) [Compound 15, 2-Aminoethyl-5-(3′-(2″-methoxy-5″-fluorophenyl)-1′-propyl)tetrahydrofuran]
duration of immobility, forced-swim test, acute (Balb/c mice): did not markedly alter the duration of immobility

COc1ccc(F)c(CCCC2CCC(CCNCCCCCN3N=C(c4ccc(OC)c(OC)c4)C4CC=CC[C@H]4C3=O)O2)c1 (stereo partly drawn) [Compound 22]
Ki (human PDE4B3): 500 nM
pIC50 (rodent PDE4): 6.3
Ki (human PDE4A1; [3]): > 1000 nM
Ki (human PDE4A1; [4]): < 1000 nM
metabolism in human liver microsomes ([1]; NADPH, up to 60 min): No detectable metabolic instability
half-life at 40 μM [1]: > 1 h
metabolism in mouse liver microsomes ([2]; NADPH, up to 60 min): No detectable metabolic instability
half-life at 40 μM ([2]; mouse, liver microsomes, pH 7.4, Table 16, read-out: MLM t1/2): > 1 h
Ki (human PDE4D3; [5]): 1.2 nM

NCCC1CCC(CCc2ccccc2)O1 (stereo not drawn) [Compound 54, 2-(Aminoethyl)-5-(phenethyl)tetrahydrofuran]
other behavioral observations (Swiss-Webster mice; 100 mg/kg, 30, 120 and 480 minutes): No unusual effects were observed
onset of depressant effects after injection (Swiss-Webster mice; 30 and 100 mg/kg): ≤ 10 min
ID50 (dose producing 1/2 maximal depressant activity) (Swiss-Webster mice; IP, 0-30 min after injection): 39.8 mg/kg
CNS stimulation (Swiss-Webster mice; mouse, in vivo): did not cause CNS stimulation

COc1ccc(F)cc1CCC1CCC(CCNCCCCCN2N=C(c3ccc(OC)c(OC)c3)C3CC=CC[C@H]3C2=O)O1 (stereo partly drawn) [Compound 115]
improvement in memory (escape latency) (mice): 30%

COc1ccc(C2CNC(=O)C2)cc1OC1CCCC1 (stereo not drawn) [Rolipram, reference compound]
forced-swim test behavior, acute (ICR mice; 0.5 mg/kg): did not alter FST behavior
